Measurements taken from US9296716B2, “Androgen receptor ligands” (THE PROVOST, FELLOWS, FOUNDATION SCHOLARS, & THE OTHER …, priority 2011, dated 2016).
Entries after “also recorded” stand apart in the source; their conditions may differ.

What was measured:
Assay type in all cases: cell-based
[1] = tested on: PC-3 cells; assay: Cell viability (AlamarBlue), PC-3; details: 50 μM, 24 hours
Description: Cell viability was assessed after 24 hours of incubation with the test compounds initially at three different concentrations to establish their dose-responsiveness, considering 50 μM as the highest concentration (FIG. 10).
For cell viability (end point) assays LNCaP, PC-3 and PWR-1E cells were seeded at 2.5*10^4/ml density in 200 μl volume of a 96-well plate in triplicate and incubated for 24 hours prior testing. Test compounds were included at different concentrations to achieve a final concentration of 0.5% DMSO in each well. Effect of 0.5% DMSO on cell-viability was also evaluated. Cell viability was assessed after 24 hours of treatment using 10% Alamar Blue reagent (Invitrogen) for each well. Cell viability was monitored by the reduction of resazurin, a blue, cell-permeable and non-toxic compound, to resorufin, a red and highly fluorescent product. Viable cells continuously convert resazurin to resorufin, increasing the overall colour and fluorescence of the media surrounding cells. Fluorescence intensity can be quantitatively determined with a fluorescence microplate reader at excitation/emission 544 nm/590 nm (Spectramax Gemini). For hormone dependent cell proliferation assays in androgen deprived LNCaP cells, cells were seeded at 2*10^4 cells/ml in a 24-well plate in triplicate. […] A control for the vehicle was included to ensure no effect on viability could be detected. […]

[2] = tested on: LNCaP cells; assay: LNCaP cell proliferation assay (androgen deprived, AlamarBlue); details: LNCaP, androgen deprived media, no DHT
Description: To determine the optimal DHT concentration and length of treatment required for cell proliferation assays, we tested a range of DHT concentrations in 0.1% DMSO for 5 or 7 days in LNCaP cells cultured in FBS stripped phenol red free media. […] Media and treatments were replaced every second incubation day (FIGS. 12 A and B)
(§1) For cell viability (end point) assays LNCaP, PC-3 and PWR-1E cells were seeded at 2.5*10^4/ml density in 200 μl volume of a 96-well plate in triplicate and incubated for 24 hours prior testing. Test compounds were included at different concentrations to achieve a final concentration of 0.5% DMSO in each well. Effect of 0.5% DMSO on cell-viability was also evaluated. Cell viability was assessed after 24 hours of treatment using 10% Alamar Blue reagent (Invitrogen) for each well. Cell viability was monitored by the reduction of resazurin, a blue, cell-permeable and non-toxic compound, to resorufin, a red and highly fluorescent product. Viable cells continuously convert resazurin to resorufin, increasing the overall colour and fluorescence of the media surrounding cells. Fluorescence intensity can be quantitatively determined with a fluorescence microplate reader at excitation/emission 544 nm/590 nm (Spectramax Gemini). For hormone dependent cell proliferation assays in androgen deprived LNCaP cells, cells were seeded at 2*10^4 cells/ml in a 24-well plate in triplicate. Cells were plated in phenol red free RPMI Glutamax (Invitrogen) supplemented with 10% charcoal-stripped FBS to deplete endogenous steroids 48 hours prior the assay as described in previous reports. […] Cells were treated with different concentrations of test compounds with or without 0.1 nM DHT to achieve a final concentration of 0.1% DMSO in each well. A control for the vehicle was included to ensure no effect on viability could be detected. Media and treatments were replaced every second day, after washing the cells twice with 1×PBS. Supernatants were collected after five days for secreted PSA levels evaluation and cell proliferation was assessed for the same plate using Alamar Blue in order to exclude non-specific effects due to toxicity issues.

[3] = tested on: PSA expression in LNCaP cells; assay: PSA ELISA, secreted PSA in LNCaP cells; details: bell-shaped effect
Description: (§2) To investigate compounds effect on PSA expression, a common biomarker for prostate cancer, we utilized a human PSA ELISA assay.
as §1
Secreted levels of prostate specific antigen were evaluated with a commercially available kit (Quantikine Human Kallikrein 3/PSA Immunoassay, R&D systems). The assay was performed following manufacturer's guidelines. In brief, 50 μl of standards and cell culture samples were added to pre-coated wells containing assay diluent RD1W (R&D systems) and incubated for two hours at room temperature. […] Wells were washed and treated with colored substrate (Tetramethylbenzidine) for an additional 30 minutes, after which 50 μl of stop solution (Sulphuric Acid 2N) was added per well and absorbance (450 nm with correction at 540 nm) was read with a plate reader within 30 minutes (Versamax).

[4] = tested on: PSA expression in 22Rv1 cells; assay: PSA ELISA, secreted PSA in 22Rv1 cells; details: 22Rv1
Description: as §2
(§3) We repeated the same experiment in 22Rv1 cell line.
Secreted levels of prostate specific antigen were evaluated with a commercially available kit (Quantikine Human Kallikrein 3/PSA Immunoassay, R&D systems). The assay was performed following manufacturer's guidelines. In brief, 50 μl of standards and cell culture samples were added to pre-coated wells containing assay diluent RD1W (R&D systems) and incubated for two hours at room temperature. Unbound material was washed several times and 200 μl of Horseradish Peroxidase (HRP) labeled PSA conjugate antibody was added to each well and further incubated for two hours at room temperature. Wells were washed and treated with colored substrate (Tetramethylbenzidine) for an additional 30 minutes, after which 50 μl of stop solution (Sulphuric Acid 2N) was added per well and absorbance (450 nm with correction at 540 nm) was read with a plate reader within 30 minutes (Versamax).

[5] = tested on: 22Rv1 cells; assay: 22Rv1 cell proliferation assay
Description: Thus, inhibition on cell proliferation by the compounds could not be evaluated (FIG. 14)
as §3
For cell viability (end point) assays LNCaP, PC-3 and PWR-1E cells were seeded at 2.5*10^4/ml density in 200 μl volume of a 96-well plate in triplicate and incubated for 24 hours prior testing. Test compounds were included at different concentrations to achieve a final concentration of 0.5% DMSO in each well. Effect of 0.5% DMSO on cell-viability was also evaluated. Cell viability was assessed after 24 hours of treatment using 10% Alamar Blue reagent (Invitrogen) for each well. Cell viability was monitored by the reduction of resazurin, a blue, cell-permeable and non-toxic compound, to resorufin, a red and highly fluorescent product. Viable cells continuously convert resazurin to resorufin, increasing the overall colour and fluorescence of the media surrounding cells. Fluorescence intensity can be quantitatively determined with a fluorescence microplate reader at excitation/emission 544 nm/590 nm (Spectramax Gemini). […] A control for the vehicle was included to ensure no effect on viability could be detected. […] Supernatants were collected after five days for secreted PSA levels evaluation and cell proliferation was assessed for the same plate using Alamar Blue in order to exclude non-specific effects due to toxicity issues.

## CC(=O)O[C@]1(C(C)=O)CC[C@H]2[C@@H]3C=C(Cl)C4=CC(=O)[C@@H]5C[C@@H]5[C@]4(C)[C@H]3CC[C@@]21C [CPA, Cyproterone Acetate, reference compound]
[1]
  effect on cell viability: minor effect
[2]
  cell proliferation in absence of DHT / androgens: induces cell proliferation; also recorded: stimulates cell proliferation
[3]
  maximal stimulatory concentration for PSA secretion: 1 µM
[4]
  PSA expression in absence of androgens: remarkable increase
[5]
  cell proliferation in absence of androgens: couldn't see a remarkable increase
